{"source": "patent US9683014B2", "about": "“Dipeptide mimetics of NGF and BDNF neurotrophins” (UCHREZHDENIE ROSSIISKOI AKADEMII MEDITSYNSKIKH NAUK …, priority 2009, dated 2017)", "key": {"[1]": {"test_system": "rats with hemorrhagic stroke", "settings": "1 mg/kg", "protocol": "The experiments were carried out on male white outbred rats weighing 220-250 g. […] The local cerebral hemorrhage (post-traumatic intracerebral hemorrhage) as a hemorrhagic stroke (HS) model was produced by the method of Makarenko (Makarenko A. N. et al., Zh. V. N. D. 2002, 52(6), 765-768).\nTo produce the stroke, rats were anesthetized with chloral hydrate (400 mg/kg i.m.) followed by craniotomy. The cerebral tissue in the region of internal capsule was destroyed followed (in 2-3 min) by the injection of blood (0.02-0.03 ml) taken from under the animal's tongue.\nThe neurological deficits, changes in the coordination of movements, muscle tone, orientation and exploratory behavior of the rats were recorded at 24 h after surgery.\nThe rats were monitored for 14 days after surgery. Animal's physical condition and behavioral features were recorded at 1, 3, 7 and 14 days.\nThe animals were distributed into 3 groups. Group 1 comprised sham-operated (SO) rats with craniotomy alone, group 2 comprised animals with HS, and group 3 comprised rats with HS treated with GK-2 (1 mg/kg at 3 h after surgery and every 48 hours thereafter for a total of 6 administrations). Group 1 and group 2 animals were treated with physiological saline in an equivalent volume.\nChanges in animals' physical condition and behavior were evaluated by conventional methods. The neurological status was assessed by scoring neurological deficits according to MacGrow's stroke scoring system as modified by I. V. Gannushkina; by the muscle tone and coordination of movements monitoring methods; cognitive function was assessed by the passive avoidance conditioned reflex (PAR); and orientation and exploratory behavior by using the open field test. Also the drug's effect on the survival of rats was monitored."}, "C57B1/6 mice": {"test_system": "C57B1/6 mice", "settings": "1.0 mg/kg i.p. 24 h prior to MPTP 30 mg/kg i.p.; 60 min after MPTP; active control 8", "protocol": "The test compound was administered intraperitoneally to male C57B1/6 mice weighing 22-25 g at a preselected dose of 1.0 mg/kg at 24 hours prior to the MPTP injection (30 mg/kg i.p.). The animals were placed in the open-field device 60 min after the MPTP injection. Animal's horizontal and vertical motor activities were monitored for 2 minutes. Passive control group was represented by animals treated with distilled water instead of MPTP. […] The treatment group was treated with GK-2 followed by MPTP. Statistical data treatment was carried out using the Mann-Whitney U-test."}, "Wistar rats": {"test_system": "Wistar rats", "settings": "1 mg/kg i.p. x7", "protocol": "The experiments were carried out on male Wistar rats weighing 280-400 g. Animals were anesthetized and scalped followed by being placed in the stereotaxis device. A skewed incision was made in the skull 1 mm wide: the start point for incision was at the level of bregma (AP=0.0) and 2 mm lateral of it (L=±2); the end point for incision was 2 mm caudal of bregma and 1 mm lateral of it (AP=2.0, L=±1). Following the sawing of the skull bone, the dura mater was incised carefully in the sawcut area. A sterile curved needle was inserted into the incision to a depth of 6.2 mm from the bone surface (DV=−6.2). By the simultaneous use of two screws in the stereotaxis device, the needle was moved slowly almost to the end point of the skewed incision. Then the needle was lifted slowly from the incision. The procedure was repeated twice on each hemisphere. Sham operation was similar to the transection procedure except that the needle was inserted to a depth of 3 mm from the bone surface (DV=−3.0). The first injection of the test compound (1 mg/kg i.p.) in the treatment group or of distilled water in the control group was made 2 hours after the transection. Further injections were made every 48 hours. In the course of the experiment each animal received 7 injections of the test compound.\nTo detect behavioral abnormalities induced by the transection of the septo-hippocampal pathway, the open-field test was used. The choice of this test was based on the following studies: 1) Lamprea M. R., Cardenas F. P., Silveira R., Walsh T. J., Morato S. Effects of septal cholinergic lesion on rat exploratory behavior in an open-field. Braz. J. Med. Biol. Res. 2003, 36(2), 233-238; 2) Cassel J. S., Kelche C., Peterson G. M., Ballough G. P., Goepp I., Will B. Graft-induced behavioral recovery from subcallosal septohippocampal damage in rats depends on maturity stage of donor tissue. Neuroscience, 1991, 45(3), 571-586. Animals were tested in the open-field device 48 hours after the last injection of the test compound (at 14 days after surgery). Differences between experimental groups were assessed according to the Wilcoxon paired test. The data are expressed as the median values for the respective samples."}, "[2]": {"test_system": "rats with ischemic cerebral infarction", "settings": "1 mg/kg i.p. x3"}}, "note": "Like-named read-outs stand apart in the source and are kept apart here. Marks after values point to notes of the source that are not given here.", "data": [{"smiles": "NCCCC[C@H](NC(=O)[C@H](CCC(=O)O)NC(=O)CCC(=O)O)C(=O)NCCCCCCNC(=O)[C@H](CCCCN)NC(=O)[C@H](CCC(=O)O)NC(=O)CCC(=O)O", "note": "[GK-2, bis-(N-monosuccinyl-glutamyl-lysine) hexamethylenediamide]", "values": [{"measurement": "Relative number of animals with paralysis of 1 to 4 limbs", "setting": "[1]; Day 1, SO 0, HS 0", "result": 0, "unit": "%"}, {"measurement": "Relative number of animals with paresis of 1 to 4 limbs", "setting": "[1]; Day 1, SO 0, HS 37.5", "result": 20, "unit": "%"}, {"measurement": "Relative number of animals with ring movements", "setting": "[1]; Day 1, SO 0, HS 50", "result": 20, "unit": "%"}, {"measurement": "Relative number of animals with limb weakness", "setting": "[1]; Day 1, SO 30, HS 75", "result": 30, "unit": "%"}, {"measurement": "Relative number of animals with floppiness & slowness of movements", "setting": "[1]; Day 1, SO 40, HS 100", "result": 40, "unit": "%"}, {"measurement": "Number of rats failing to mount the horizontal bar, abs.", "setting": "[1]; Day 1, sham 3/10, stroke 6/8", "result": "4/10"}, {"measurement": "Number of rats missing the rotating rod (3 rpm) during 2 min, abs.", "setting": "[1]; Day 1, sham 3/10, stroke 6/8", "result": "4/10"}, {"measurement": "Vertical motor activity", "setting": "[1]; Day 1, sham 5.0, stroke 1.25", "result": "3.7 ± 0.9"}, {"measurement": "Exploration of openings", "setting": "[1]; Day 1, sham 10.3, stroke 1.9", "result": "3.6 ± 0.7"}, {"measurement": "Horizontal motor activity", "setting": "[1]; Day 1, sham 14.1, stroke 4.4", "result": "9.9 ± 2.1"}, {"measurement": "Number of rats failing to mount the horizontal bar, %", "setting": "[1]; Day 1, sham 30, stroke 75", "result": 40, "unit": "%"}, {"measurement": "Number of rats missing the rotating rod (3 rpm) during 2 min, %", "setting": "[1]; Day 1, sham 30, stroke 75", "result": 40, "unit": "%"}, {"measurement": "Cumulative index", "setting": "[1]; Day 1, sham 30.3, stroke 7.5", "result": "17.2 ± 3.5"}, {"measurement": "Relative number of animals with paralysis of 1 to 4 limbs", "setting": "[1]; Day 3, SO 0, HS 0", "result": 0, "unit": "%"}, {"measurement": "Relative number of animals with paresis of 1 to 4 limbs", "setting": "[1]; Day 3, SO 0, HS 25", "result": 0, "unit": "%"}, {"measurement": "Relative number of animals with ring movements", "setting": "[1]; Day 3, SO 0, HS 37.5", "result": 10, "unit": "%"}, {"measurement": "Relative number of animals with limb weakness", "setting": "[1]; Day 3, SO 30, HS 75", "result": 30, "unit": "%"}, {"measurement": "Relative number of animals with floppiness & slowness of movements", "setting": "[1]; Day 3, SO 30, HS 100", "result": 30, "unit": "%"}, {"measurement": "Number of rats failing to mount the horizontal bar, abs.", "setting": "[1]; Day 3, sham 2/10, stroke 3/8", "result": "2/10"}, {"measurement": "Number of rats missing the rotating rod (3 rpm) during 2 min, abs.", "setting": "[1]; Day 3, sham 2/10, stroke 5/8", "result": "3/10"}, {"measurement": "Exploration of openings", "setting": "[1]; Day 3, sham 4.0, stroke 3.1", "result": "3.7 ± 0.9"}, {"measurement": "Vertical motor activity", "setting": "[1]; Day 3, sham 4.6, stroke 1.1", "result": "2.4 ± 0.6"}, {"measurement": "Horizontal motor activity", "setting": "[1]; Day 3, sham 9.3, stroke 3.0", "result": "5.6 ± 1.4"}, {"measurement": "Cumulative index", "setting": "[1]; Day 3, sham 17.9, stroke 7.2", "result": "11.7 ± 2.4"}, {"measurement": "Number of rats failing to mount the horizontal bar, %", "setting": "[1]; Day 3, sham 20, stroke 37.5", "result": 20, "unit": "%"}, {"measurement": "Number of rats missing the rotating rod (3 rpm) during 2 min, %", "setting": "[1]; Day 3, sham 20, stroke 62.5", "result": 30, "unit": "%"}, {"measurement": "Relative number of animals with paralysis of 1 to 4 limbs", "setting": "[1]; Day 7, SO 0, HS 0", "result": 0, "unit": "%"}, {"measurement": "Relative number of animals with paresis of 1 to 4 limbs", "setting": "[1]; Day 7, SO 0, HS 0", "result": 0, "unit": "%"}, {"measurement": "Relative number of animals with ring movements", "setting": "[1]; Day 7, SO 0, HS 0", "result": 0, "unit": "%"}, {"measurement": "Relative number of animals with floppiness & slowness of movements", "setting": "[1]; Day 7, SO 0, HS 43", "result": 0, "unit": "%"}, {"measurement": "Relative number of animals with limb weakness", "setting": "[1]; Day 7, SO 0, HS 43", "result": 0, "unit": "%"}, {"measurement": "Number of rats failing to mount the horizontal bar, %", "setting": "[1]; Day 7, sham 0, stroke 43", "result": 10, "unit": "%"}, {"measurement": "Number of rats missing the rotating rod (3 rpm) during 2 min, %", "setting": "[1]; Day 7, sham 0, stroke 43", "result": 20, "unit": "%"}, {"measurement": "Number of rats failing to mount the horizontal bar, abs.", "setting": "[1]; Day 7, sham 0/10, stroke 3/7", "result": "1/10"}, {"measurement": "Number of rats missing the rotating rod (3 rpm) during 2 min, abs.", "setting": "[1]; Day 7, sham 0/10, stroke 3/7", "result": "2/10"}, {"measurement": "Exploration of openings", "setting": "[1]; Day 7, sham 3.7, stroke 2.9", "result": "4.3 ± 0.9"}, {"measurement": "Vertical motor activity", "setting": "[1]; Day 7, sham 4.1, stroke 1.0", "result": "4.4 ± 0.7"}, {"measurement": "Horizontal motor activity", "setting": "[1]; Day 7, sham 8.6, stroke 3.7", "result": "8.1 ± 1.6"}, {"measurement": "Cumulative index", "setting": "[1]; Day 7, sham 16.4, stroke 7.6", "result": "16.8 ± 2.7"}, {"measurement": "Relative number of animals with floppiness & slowness of movements", "setting": "[1]; Day 14, SO 0, HS 0", "result": 0, "unit": "%"}, {"measurement": "Relative number of animals with limb weakness", "setting": "[1]; Day 14, SO 0, HS 0", "result": 0, "unit": "%"}, {"measurement": "Relative number of animals with paralysis of 1 to 4 limbs", "setting": "[1]; Day 14, SO 0, HS 0", "result": 0, "unit": "%"}, {"measurement": "Relative number of animals with paresis of 1 to 4 limbs", "setting": "[1]; Day 14, SO 0, HS 0", "result": 0, "unit": "%"}, {"measurement": "Relative number of animals with ring movements", "setting": "[1]; Day 14, SO 0, HS 0", "result": 0, "unit": "%"}, {"measurement": "Number of rats failing to mount the horizontal bar, %", "setting": "[1]; Day 14, sham 0, stroke 17", "result": 0, "unit": "%"}, {"measurement": "Number of rats missing the rotating rod (3 rpm) during 2 min, %", "setting": "[1]; Day 14, sham 0, stroke 17", "result": 0, "unit": "%"}, {"measurement": "Number of rats failing to mount the horizontal bar, abs.", "setting": "[1]; Day 14, sham 0/10, stroke 1/6", "result": "0/10"}, {"measurement": "Number of rats missing the rotating rod (3 rpm) during 2 min, abs.", "setting": "[1]; Day 14, sham 0/10, stroke 1/6", "result": "0/10"}, {"measurement": "Exploration of openings", "setting": "[1]; Day 14, sham 5.0, stroke 2.8", "result": "3.2 ± 0.9"}, {"measurement": "Vertical motor activity", "setting": "[1]; Day 14, sham 5.1, stroke 1.0", "result": "2.8 ± 0.9"}, {"measurement": "Horizontal motor activity", "setting": "[1]; Day 14, sham 9.1, stroke 1.8", "result": "7.5 ± 1.7"}, {"measurement": "Cumulative index", "setting": "[1]; Day 14, sham 19.2, stroke 5.7", "result": "13.5 ± 2.9"}, {"measurement": "Number of sectors crossed (% of passive control)", "setting": "C57B1/6 mice", "result": "38*^+ % of passive control"}, {"measurement": "horizontal motor activity in the open-field test (median)", "setting": "Wistar rats; 1st minute, 14 days after surgery, transection 11.5, sham 21", "result": 12.5}, {"measurement": "horizontal motor activity in the open-field test (median)", "setting": "Wistar rats; 2nd minute, transection 12, sham 14", "result": 11.5}, {"measurement": "horizontal motor activity in the open-field test (median)", "setting": "Wistar rats; 3rd minute, transection 19, sham 9.5", "result": 15.5}, {"measurement": "horizontal motor activity in the open-field test (median)", "setting": "Wistar rats; 4th minute, transection 11.5, sham 9", "result": "6.5*"}, {"measurement": "limb-placing test score", "setting": "[2]; day 4 post-ischemia, ischemic rats 3.00±0.38, intact 14", "result": "5.90±0.62"}, {"measurement": "limb-placing test score", "setting": "[2]; day 7 post-ischemia, ischemic rats 4.46±0.40, intact 14", "result": "7.67±0.75"}]}]}
